Assay results as given in ChEMBL document CHEMBL1144350, “Synthesis and evaluation of imidazolylmethylenetetrahydronaphthalenes and imidazolylmethyleneindanes: potent inhibitors of aldosterone synthase” (J Med Chem, 2005).

Tests used:
[1] = molecular target: T1, Cytochrome P450 11B2, mitochondrial (Homo sapiens, UniProt P19099); assay: In vitro inhibition of [14C]deoxycorticosterone binding to human cytochrome P450 11B2 expressed in hamster V79 MZh cells; format: cell-based
T1 sequence (P19099 whole entry): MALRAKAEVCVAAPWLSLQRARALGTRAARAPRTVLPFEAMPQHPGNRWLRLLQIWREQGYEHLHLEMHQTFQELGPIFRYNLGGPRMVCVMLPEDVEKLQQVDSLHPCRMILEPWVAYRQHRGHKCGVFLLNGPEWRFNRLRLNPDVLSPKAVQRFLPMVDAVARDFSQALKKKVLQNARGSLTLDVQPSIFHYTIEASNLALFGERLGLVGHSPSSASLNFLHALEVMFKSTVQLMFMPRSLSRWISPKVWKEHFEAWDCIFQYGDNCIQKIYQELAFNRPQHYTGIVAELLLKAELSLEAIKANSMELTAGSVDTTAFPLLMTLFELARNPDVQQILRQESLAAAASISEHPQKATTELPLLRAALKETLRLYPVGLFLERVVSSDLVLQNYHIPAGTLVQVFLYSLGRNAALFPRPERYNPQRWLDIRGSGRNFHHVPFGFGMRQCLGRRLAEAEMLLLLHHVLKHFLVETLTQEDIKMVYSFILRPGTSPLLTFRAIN

[2] = molecular target: T2, Steroid 17-alpha-hydroxylase/17,20 lyase (Homo sapiens, UniProt P05093); assay: In vitro inhibition against human […] cytochrome P450 17 expressed in Escherichia coli with 2.5 uM progesterone
T2 sequence (P05093 whole entry): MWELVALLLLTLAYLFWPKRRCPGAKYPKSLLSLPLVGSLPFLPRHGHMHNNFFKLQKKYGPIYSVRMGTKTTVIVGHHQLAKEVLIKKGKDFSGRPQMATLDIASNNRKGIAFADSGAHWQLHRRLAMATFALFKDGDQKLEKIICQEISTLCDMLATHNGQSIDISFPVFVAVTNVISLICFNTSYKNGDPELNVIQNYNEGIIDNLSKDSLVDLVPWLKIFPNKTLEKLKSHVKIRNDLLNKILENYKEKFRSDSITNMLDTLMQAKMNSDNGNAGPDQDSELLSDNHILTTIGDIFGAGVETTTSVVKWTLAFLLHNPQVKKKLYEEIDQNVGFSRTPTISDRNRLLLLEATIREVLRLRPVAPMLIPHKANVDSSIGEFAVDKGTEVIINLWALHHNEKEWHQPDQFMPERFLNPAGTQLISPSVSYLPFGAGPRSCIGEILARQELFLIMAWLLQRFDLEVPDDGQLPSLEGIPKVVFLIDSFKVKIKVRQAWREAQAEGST

[3] = molecular target: T3, Cytochrome P450 11B1, mitochondrial (Bos taurus, UniProt P15150); assay: In vitro inhibition against bovine cytochrome P450 11B with 200 uM corticosterone; settings: cyp11b
T3 sequence (P15150 whole entry): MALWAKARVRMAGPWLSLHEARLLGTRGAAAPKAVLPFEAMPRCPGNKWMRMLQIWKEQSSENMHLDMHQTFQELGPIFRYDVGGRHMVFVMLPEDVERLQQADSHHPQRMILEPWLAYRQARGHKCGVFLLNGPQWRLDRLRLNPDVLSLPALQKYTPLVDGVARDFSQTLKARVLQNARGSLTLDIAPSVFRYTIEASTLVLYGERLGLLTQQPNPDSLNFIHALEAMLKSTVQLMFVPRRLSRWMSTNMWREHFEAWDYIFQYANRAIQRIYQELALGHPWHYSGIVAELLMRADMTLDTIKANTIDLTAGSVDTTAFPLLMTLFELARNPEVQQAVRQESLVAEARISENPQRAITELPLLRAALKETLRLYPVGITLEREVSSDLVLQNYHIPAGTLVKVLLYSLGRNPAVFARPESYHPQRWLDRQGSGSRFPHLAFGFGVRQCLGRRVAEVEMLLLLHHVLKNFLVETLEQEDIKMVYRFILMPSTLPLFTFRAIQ

[4] = molecular target: T1, Cytochrome P450 11B2, mitochondrial; assay: In vitro inhibition of human cytochrome P450 11B2 expressed in Schizosaccharomyces pombe with 500 nM deoxy-corticosterone
[5] = molecular target: T4, Cytochrome P450 11B1, mitochondrial (Homo sapiens, UniProt P15538); assay: In vitro inhibition of [14C]deoxycorticosterone binding to human cytochrome P450 11B1 expressed in hamster V79 MZh cells; format: cell-based
T4 sequence (P15538 whole entry): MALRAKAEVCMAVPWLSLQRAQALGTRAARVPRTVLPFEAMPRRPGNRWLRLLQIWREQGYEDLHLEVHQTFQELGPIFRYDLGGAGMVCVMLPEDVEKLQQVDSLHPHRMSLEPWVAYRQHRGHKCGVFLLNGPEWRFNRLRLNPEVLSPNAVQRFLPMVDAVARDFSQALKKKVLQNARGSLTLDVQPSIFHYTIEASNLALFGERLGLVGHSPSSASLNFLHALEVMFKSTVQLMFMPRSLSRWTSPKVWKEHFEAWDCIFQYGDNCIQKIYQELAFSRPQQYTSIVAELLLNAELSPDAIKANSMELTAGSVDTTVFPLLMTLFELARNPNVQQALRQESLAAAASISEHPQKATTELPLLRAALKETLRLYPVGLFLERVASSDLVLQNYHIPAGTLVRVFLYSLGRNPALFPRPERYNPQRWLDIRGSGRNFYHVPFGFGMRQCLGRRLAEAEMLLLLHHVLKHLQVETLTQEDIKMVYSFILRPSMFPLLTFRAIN

Aromatase = molecular target: T5, Aromatase (Homo sapiens, UniProt P11511)
T5 sequence (P11511 whole entry): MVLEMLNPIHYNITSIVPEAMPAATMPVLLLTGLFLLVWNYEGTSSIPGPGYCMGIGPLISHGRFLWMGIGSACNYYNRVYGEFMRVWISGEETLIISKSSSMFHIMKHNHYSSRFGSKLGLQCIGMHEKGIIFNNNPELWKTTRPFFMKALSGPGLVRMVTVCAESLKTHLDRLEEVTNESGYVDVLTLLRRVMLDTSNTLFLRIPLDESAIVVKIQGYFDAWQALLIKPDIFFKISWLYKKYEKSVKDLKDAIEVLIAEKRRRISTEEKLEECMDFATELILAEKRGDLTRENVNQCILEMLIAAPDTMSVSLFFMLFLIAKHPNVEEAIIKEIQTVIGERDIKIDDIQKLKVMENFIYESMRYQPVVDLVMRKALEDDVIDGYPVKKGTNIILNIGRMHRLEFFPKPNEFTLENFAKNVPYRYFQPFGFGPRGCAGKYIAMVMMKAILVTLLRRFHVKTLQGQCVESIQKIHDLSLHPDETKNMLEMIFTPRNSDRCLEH
Description: In vitro inhibitory concentration against human placental cytochrome P450 19 with 2.5 uM testosterone

Compound | IC50 [1] [nM] | Inhibition [2] [%] | Inhibition [3] [%] | Inhibition [4] [%] | IC50 [5] [nM] | IC50 (Aromatase) [nM]
Brc1ccc2c(c1)CC/C2=C/c1c[nH]cn1 | 10.3 | 15 | 88 | 76 |  | 
N#Cc1ccc2c(c1)CC/C2=C/c1ncc[nH]1 | 35.7 | 4 | 100 | 65 | 12.3 | 15
Clc1ccc2c(c1)/C(=C/c1c[nH]cn1)CCC2 | 47.3 | 24 | 66 | 48 |  | 120
Clc1ccc2c(c1)CC/C2=C/c1c[nH]cn1 |  | 26 | 87 | 80 |  | 39
N#Cc1ccc2c(c1)/C(=C\c1c[nH]cn1)CCC2 |  | 3 | 97 | 23 |  | 810
N#Cc1ccc2c(c1)/C(=C/c1cnc[nH]1)CCC2 |  | 2 | 62 | 8 |  | 970
Fc1ccc2c(c1)CC/C2=C/c1c[nH]cn1 |  | 11 | 64 | 58 |  | 
C(=C1\CCCc2ccccc21)/c1c[nH]cn1 |  | 13 | 95 | 82 |  | 190
